Laboratory results published in PubChem BioAssay (NCI).
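1) Cells in 96-well plates. 2) Compound, 48 h, 5 concentrations. 3) Linear interpolation between surrounding doses. 4) Unreached endpoint = highest concentration. TGI: total growth inhibition.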

Legend:
Test in all cases: NCI anticancer screen, dose series, 48 h
HL-60(TB) leukemia = system: HL-60(TB) leukemia
CCRF-CEM leukemia = system: CCRF-CEM leukemia
MDA-MB-231 breast = system: MDA-MB-231 breast
MOLT-4 leukemia = system: MOLT-4 leukemia
SF-295 CNS = system: SF-295 CNS
A498 renal = system: A498 renal
DU-145 prostate = system: DU-145 prostate
M14 melanoma = system: M14 melanoma
EKVX NSCLC = system: EKVX NSCLC
HS 578T breast = system: HS 578T breast
RPMI-8226 leukemia = system: RPMI-8226 leukemia
BT-549 breast = system: BT-549 breast
OVCAR-3 ovarian = system: OVCAR-3 ovarian
MCF7 breast = system: MCF7 breast
OVCAR-5 ovarian = system: OVCAR-5 ovarian
COLO 205 colon = system: COLO 205 colon
OVCAR-4 ovarian = system: OVCAR-4 ovarian
NCI-H460 lung = system: NCI-H460 lung
SN12C renal = system: SN12C renal
OVCAR-8 ovarian = system: OVCAR-8 ovarian
NCI-H522 lung = system: NCI-H522 lung
SNB-19 CNS = system: SNB-19 CNS
UACC-257 melanoma = system: UACC-257 melanoma
NCI-H226 lung = system: NCI-H226 lung
KM12 colon = system: KM12 colon
SK-OV-3 ovarian = system: SK-OV-3 ovarian
RXF 393 renal = system: RXF 393 renal
SF-539 CNS = system: SF-539 CNS
LOX IMVI melanoma = system: LOX IMVI melanoma
HT29 colon = system: HT29 colon
786-0 renal = system: 786-0 renal
NCI-H23 lung = system: NCI-H23 lung
HOP-92 NSCLC = system: HOP-92 NSCLC
SK-MEL-2 melanoma = system: SK-MEL-2 melanoma
HCC-2998 colon = system: HCC-2998 colon
A549 NSCLC = system: A549 NSCLC
NCI/ADR-RES ovarian = system: NCI/ADR-RES ovarian
K-562 leukemia = system: K-562 leukemia
MDA-MB-435 = system: MDA-MB-435
SK-MEL-5 melanoma = system: SK-MEL-5 melanoma
TK-10 renal = system: TK-10 renal
U251 CNS = system: U251 CNS
IGROV1 ovarian = system: IGROV1 ovarian
HCT-15 colon = system: HCT-15 colon
SNB-75 CNS = system: SNB-75 CNS
UO-31 renal = system: UO-31 renal
PC-3 prostate = system: PC-3 prostate
T-47D breast = system: T-47D breast
SK-MEL-28 melanoma = system: SK-MEL-28 melanoma
HOP-62 NSCLC = system: HOP-62 NSCLC
CAKI-1 renal = system: CAKI-1 renal
SF-268 CNS = system: SF-268 CNS
UACC-62 melanoma = system: UACC-62 melanoma
MDA-N = system: MDA-N
HCT-116 colon = system: HCT-116 colon
ACHN renal = system: ACHN renal
MALME-3M melanoma = system: MALME-3M melanoma
SW-620 colon = system: SW-620 colon
SR leukemia = system: SR leukemia

## COc1ccc([N+](=O)[O-])c2c(NCCCN(C)C)c3ccccc3nc12
HL-60(TB) leukemia
  TGI: 3.8 µM
CCRF-CEM leukemia
  TGI: > 100 µM
MDA-MB-231 breast
  TGI: 2.31 µM
MOLT-4 leukemia
  TGI: 1.39 µM
SF-295 CNS
  TGI: 0.693 µM
A498 renal
  TGI: 0.0733 µM
DU-145 prostate
  TGI: 1.79 µM
M14 melanoma
  TGI: 0.572 µM
EKVX NSCLC
  TGI: 0.557 µM
HS 578T breast
  TGI: 4.29 µM
RPMI-8226 leukemia
  TGI: 2.17 µM
BT-549 breast
  TGI: 2.83 µM
OVCAR-3 ovarian
  TGI: 0.442 µM
MCF7 breast
  TGI: 0.203 µM
OVCAR-5 ovarian
  TGI: 0.984 µM
COLO 205 colon
  TGI: 0.26 µM
OVCAR-4 ovarian
  TGI: 0.206 µM
NCI-H460 lung
  TGI: 0.257 µM
SN12C renal
  TGI: 1.43 µM
OVCAR-8 ovarian
  TGI: 4.9 µM
NCI-H522 lung
  TGI: 0.145 µM
SNB-19 CNS
  TGI: 3.51 µM
UACC-257 melanoma
  TGI: 0.531 µM
NCI-H226 lung
  TGI: 0.862 µM
KM12 colon
  TGI: 0.509 µM
SK-OV-3 ovarian
  TGI: 2.38 µM
RXF 393 renal
  TGI: 0.253 µM
SF-539 CNS
  TGI: 1.49 µM
LOX IMVI melanoma
  TGI: 5.11 µM
HT29 colon
  TGI: 1.22 µM
786-0 renal
  TGI: 0.504 µM
NCI-H23 lung
  TGI: 0.402 µM
HOP-92 NSCLC
  TGI: 0.4 µM
SK-MEL-2 melanoma
  TGI: 0.281 µM
HCC-2998 colon
  TGI: 0.0727 µM
A549 NSCLC
  TGI: 0.895 µM
NCI/ADR-RES ovarian
  TGI: 23.5 µM
K-562 leukemia
  TGI: 3.76 µM
MDA-MB-435
  TGI: 1.17 µM
SK-MEL-5 melanoma
  TGI: 0.243 µM
TK-10 renal
  TGI: 2.43 µM
U251 CNS
  TGI: 2.05 µM
IGROV1 ovarian
  TGI: 0.234 µM
HCT-15 colon
  TGI: 1.39 µM
SNB-75 CNS
  TGI: 0.802 µM
UO-31 renal
  TGI: 1.15 µM
PC-3 prostate
  TGI: 0.372 µM
T-47D breast
  TGI: 3.95 µM
SK-MEL-28 melanoma
  TGI: 13.4 µM
HOP-62 NSCLC
  TGI: 0.399 µM
CAKI-1 renal
  TGI: 5.7 µM
SF-268 CNS
  TGI: 3.44 µM
UACC-62 melanoma
  TGI: 0.285 µM
MDA-N
  TGI: 1.55 µM
HCT-116 colon
  TGI: 0.978 µM
ACHN renal
  TGI: 0.389 µM
MALME-3M melanoma
  TGI: 0.336 µM

## CCN(CC)CCC(=O)NC1c2ccc(Cl)cc2Oc2c(C)cccc21 (stereo unspecified)
HL-60(TB) leukemia
  TGI: 41.2 µM
CCRF-CEM leukemia
  TGI: 37 µM
MDA-MB-231 breast
  TGI: 40.8 µM
MOLT-4 leukemia
  TGI: 38.7 µM
SF-295 CNS
  TGI: 33.9 µM
DU-145 prostate
  TGI: 32.9 µM
M14 melanoma
  TGI: 31.3 µM
EKVX NSCLC
  TGI: 36.9 µM
RPMI-8226 leukemia
  TGI: 70.3 µM
BT-549 breast
  TGI: 27.1 µM
SW-620 colon
  TGI: 33.2 µM
OVCAR-3 ovarian
  TGI: 28.8 µM
MCF7 breast
  TGI: 31 µM
OVCAR-5 ovarian
  TGI: 29.2 µM
COLO 205 colon
  TGI: 40.1 µM
OVCAR-4 ovarian
  TGI: 28.9 µM
NCI-H460 lung
  TGI: 31.7 µM
SN12C renal
  TGI: 35.5 µM
OVCAR-8 ovarian
  TGI: 31.4 µM
SR leukemia
  TGI: 39.1 µM
NCI-H522 lung
  TGI: 31.6 µM
SNB-19 CNS
  TGI: 27.1 µM
UACC-257 melanoma
  TGI: 31.6 µM
KM12 colon
  TGI: 30.4 µM
SK-OV-3 ovarian
  TGI: 31.8 µM
SF-539 CNS
  TGI: 27.7 µM
LOX IMVI melanoma
  TGI: 29.1 µM
HT29 colon
  TGI: 28.9 µM
786-0 renal
  TGI: 25.2 µM
NCI-H23 lung
  TGI: 31.5 µM
HOP-92 NSCLC
  TGI: 40.8 µM
HCC-2998 colon
  TGI: 39 µM
A549 NSCLC
  TGI: 33.3 µM
NCI/ADR-RES ovarian
  TGI: 39 µM
K-562 leukemia
  TGI: 40.7 µM
MDA-MB-435
  TGI: 28.3 µM
SK-MEL-5 melanoma
  TGI: 26.1 µM
TK-10 renal
  TGI: 27.9 µM
IGROV1 ovarian
  TGI: 40 µM
HCT-15 colon
  TGI: 34.6 µM
SNB-75 CNS
  TGI: 22.5 µM
UO-31 renal
  TGI: 21.5 µM
PC-3 prostate
  TGI: 26.7 µM
T-47D breast
  TGI: 31.5 µM
SK-MEL-28 melanoma
  TGI: 27.9 µM
SF-268 CNS
  TGI: 38.9 µM
UACC-62 melanoma
  TGI: 34 µM
MDA-N
  TGI: 32.3 µM
HCT-116 colon
  TGI: 30.2 µM
